This note sets out measurements from patent publication US8865623B2, “Herbicidally active cyclic diones and derivatives thereof, processes for their preparation, compositions, and method of controlling weeds” (Syngenta Limited, priority 2009, dated 2014).

What all share (type): in vivo
Experiment [1] deals with Alopecurus myosuroides (ALOMY). Briefly: Pre-emergence herbicidal activity, glasshouse pot test. Conditions: evaluated after 13 days; for pest or weed control at 250 g/ha: Alopecurus myosuroides, 312 h, Rate 250 g/ha, pre-emergence spray, read-out: Pre-emergence activity ALOMY (100=total damage to plant; 0=no damage to plant). The essentials:
(§1)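 Pot-grown plants in standard soil received a spray one day post-sowing (pre-emergence) or after eight days' growth (post-emergence). Scoring took place 13 days later on a 0–100 scale, 100 meaning total damage.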

For experiment [2], the system named is Avena fatua (AVEFA). The experiment is described as above. Conditions: evaluated after 13 days; for pest or weed control at 250 g/ha: Avena fatua, 312 h, Rate 250 g/ha, pre-emergence spray, read-out: Pre-emergence activity AVEFA (100=total damage to plant; 0=no damage to plant). The essentials:
as §1

In experiment [3] the test system is Echinochloa crus-galli (ECHCG). The experiment is described as above. As to conditions: evaluated after 13 days; for pest or weed control at 250 g/ha: Echinochloa crus-galli, 312 h, Rate 250 g/ha, pre-emergence spray, read-out: Pre-emergence activity ECHCG (100=total damage to plant; 0=no damage to plant). In short, it runs like this: as §1
Experiment [4] has as its system Lolium perenne (LOLPE). The experiment is described as above. As to conditions: evaluated after 13 days; for pest or weed control at 250 g/ha: Lolium perenne, 312 h, Rate 250 g/ha, pre-emergence spray, read-out: Pre-emergence activity LOLPE (100=total damage to plant; 0=no damage to plant). In short, it runs like this: as §1
Experiment [5] deals with Alopecurus myosuroides (ALOMY). The experiment is described as follows: Post-emergence herbicidal activity, glasshouse pot test. Conditions: rate 250 g/ha, evaluated after 13 days; for pest or weed control at 250 g/ha: Alopecurus myosuroides, 312 h, glasshouse, read-out: Post-emergence activity ALOMY (100=total damage to plant; 0=no damage to plant). In short, it runs like this:
as §1

Experiment [6] deals with Avena fatua (AVEFA). Described as above. Conditions: rate 250 g/ha, evaluated after 13 days; for pest or weed control at 250 g/ha: Avena fatua, 312 h, glasshouse, read-out: Post-emergence activity AVEFA (100=total damage to plant; 0=no damage to plant). The essentials: as §1
The subject of experiment [7] is Echinochloa crus-galli (ECHCG). The description is as above. As to conditions: rate 250 g/ha, evaluated after 13 days; for pest or weed control at 250 g/ha: Echinochloa crus-galli, 312 h, glasshouse, read-out: Post-emergence activity ECHCG (100=total damage to plant; 0=no damage to plant). In short, it runs like this:
as §1

Experiment [8] deals with Lolium perenne (LOLPE). The experiment is described as above. Conditions: rate 250 g/ha, evaluated after 13 days; for pest or weed control at 250 g/ha: Lolium perenne, 312 h, glasshouse, read-out: Post-emergence activity LOLPE (100=total damage to plant; 0=no damage to plant). In short, it runs like this:
as §1

Consider `CCc1ccc(Oc2ccc(Cl)cc2)cc1C1=C(O)C(C)(C)CCC1=O` [Example A-50], for which the pest or weed control at 250 g/ha worked out at 0% in experiment [1]; 0% in the experiment on Avena fatua (AVEFA) [2]; 100% in experiment [3]; 70% in the experiment with Lolium perenne (LOLPE) [4]; 0% in experiment [5]; 0% with Avena fatua (AVEFA) [6]. The pest or weed control at 250 g/ha came to 50% in experiment [7] and 60% in the experiment on Lolium perenne (LOLPE) [8].
`CCc1ccc(Oc2ccc(Cl)cc2)cc1C1=C(O)CC(C)(C)CC1=O` [Example A-26]: the pest or weed control at 250 g/ha in experiment [1] stood at 70%; in the experiment on Avena fatua (AVEFA) [2], 40%; in experiment [3], 100%; with Lolium perenne (LOLPE) [4], 80%; in experiment [5] it was 80%; in the experiment on Avena fatua (AVEFA) [6], 40%. Also, the pest or weed control at 250 g/ha in experiment [7] amounted to 100%; in the experiment on Lolium perenne (LOLPE) [8] it was 70%.
Take `CCc1ccc(Oc2nc3cc(Cl)ccc3s2)cc1C1=C(O)CC(C)(C)CC1=O` [Example A-293]: the pest or weed control at 250 g/ha was 80% in experiment [1]; 30% in the experiment on Avena fatua (AVEFA) [2]; 100% in experiment [3]; 100% with Lolium perenne (LOLPE) [4]; 100% in experiment [5]; 100% in the experiment with Avena fatua (AVEFA) [6]. Also, the pest or weed control at 250 g/ha (in experiment [7]; in the experiment on Lolium perenne (LOLPE) [8]) was 100% in each case.
For the molecule `CCc1ccc(Oc2ncc(Cl)cc2C(F)(F)F)cc1C1=C(O)[C@@H]2CC[C@](C)(C1=O)C2(C)C` [Example A-329], the pest or weed control at 250 g/ha in experiment [1] worked out at 90%; in the experiment with Avena fatua (AVEFA) [2] it was 90%; in experiment [3], 100%; in the experiment on Lolium perenne (LOLPE) [4], 100%; in experiment [5] it was 80%; in the experiment with Avena fatua (AVEFA) [6], 90%. Further, the figures for the pest or weed control at 250 g/ha (in experiment [7]; in the experiment on Lolium perenne (LOLPE) [8]) were 100% and 70%, respectively.
As to `CCc1ccc(Oc2ccc(C(F)(F)F)cn2)cc1C1=C(O)CC2(CCOCC2)CC1=O` [Example A-267], the pest or weed control at 250 g/ha (in experiment [1]; in the experiment on Avena fatua (AVEFA) [2]; in experiment [3]; in the experiment on Lolium perenne (LOLPE) [4]; in experiment [5]; with Avena fatua (AVEFA) [6]) was 100% in each case. Besides, the pest or weed control at 250 g/ha (in experiment [7]; in the experiment on Lolium perenne (LOLPE) [8]) was 100% throughout.
On to `CCc1ccc(Oc2ncc(C(F)(F)F)cc2Cl)cc1C1=C(O)CC2(CCOCC2)CC1=O` [Example A-272], for which the pest or weed control at 250 g/ha in experiment [1] amounted to 100%; in the experiment on Avena fatua (AVEFA) [2], 100%; in experiment [3], 100%; in the experiment with Lolium perenne (LOLPE) [4], 100%; in experiment [5] it was 90%; with Avena fatua (AVEFA) [6], 90%. In addition, the values for the pest or weed control at 250 g/ha (in experiment [7]; in the experiment with Lolium perenne (LOLPE) [8]) were 100% and 70%, respectively.
Regarding `CCc1ccc(Oc2ncnc3sccc23)cc1C1=C(O)C(C)(C)OC(C)(C)C1=O` [Example A-126], the pest or weed control at 250 g/ha in experiment [1] is 0%; with Avena fatua (AVEFA) [2], 0%; in experiment [3], 10%; in the experiment with Lolium perenne (LOLPE) [4] it was 0%; in experiment [5], 10%; in the experiment on Avena fatua (AVEFA) [6] it was 20%. In addition, the pest or weed control at 250 g/ha in experiment [7] worked out at 50%; in the experiment with Lolium perenne (LOLPE) [8], 10%.
As to `CCc1ccc(Oc2nc3ccc(C(F)(F)F)cc3s2)cc1C1=C(O)C(C)(C)OC(C)(C)C1=O` [Example A-219], the pest or weed control at 250 g/ha was found to be 50% in experiment [1]; 30% in the experiment on Avena fatua (AVEFA) [2]; 90% in experiment [3]; 80% with Lolium perenne (LOLPE) [4]; 90% in experiment [5]; 100% with Avena fatua (AVEFA) [6]. Also, the figures for the pest or weed control at 250 g/ha (in experiment [7]; in the experiment on Lolium perenne (LOLPE) [8]) were 100% and 90%, respectively.
Consider `CCc1ccc(Oc2nc3cc(OC)ccc3s2)cc1C1=C(O)C(C)(C)OC(C)(C)C1=O` [Example A-217], for which the pest or weed control at 250 g/ha was 30% in experiment [1]; 0% with Avena fatua (AVEFA) [2]; 40% in experiment [3]; 60% with Lolium perenne (LOLPE) [4]; 60% in experiment [5]; 50% in the experiment on Avena fatua (AVEFA) [6]. Moreover, the pest or weed control at 250 g/ha in experiment [7] was 70%; in the experiment on Lolium perenne (LOLPE) [8] it was 60%.
As for `CCc1ccc(Oc2ccc(F)cc2)cc1C1=C(O)[C@@H]2CC[C@](C)(C1=O)C2(C)C` [Example A-239], the pest or weed control at 250 g/ha came out at 20% in experiment [1]; 0% in the experiment on Avena fatua (AVEFA) [2]; 90% in experiment [3]; 60% in the experiment on Lolium perenne (LOLPE) [4]; 20% in experiment [5]; 10% in the experiment on Avena fatua (AVEFA) [6]. Besides, the pest or weed control at 250 g/ha in experiment [7] was found to be 70%; with Lolium perenne (LOLPE) [8], 30%.
As for `CCCC(=O)OC1=C(c2cc(Oc3ccc(C#N)cc3F)ccc2CC)C(=O)C(C)(C)OC1(C)C` [Example P-3], the “ALOMY damage to plant (100=total damage to plant; 0=no damage to plant)” value in experiment [1] (pre-emergence, rate 250 g/ha) was determined as 70; in experiment [5], 90. Also, the “AVEFA damage to plant (100=total damage to plant; 0=no damage to plant)” value with Avena fatua (AVEFA) [2] (pre-emergence, rate 250 g/ha) is recorded as 70; with Avena fatua (AVEFA) [6], 60. Also, the “ECHCG damage to plant (100=total damage to plant; 0=no damage to plant)” value was 100 in experiment [3] (pre-emergence, rate 250 g/ha) and 100 in experiment [7]. Besides, the “LOLPE damage to plant (100=total damage to plant; 0=no damage to plant)” value in the experiment on Lolium perenne (LOLPE) [4] (pre-emergence, rate 250 g/ha) came out at 100; with Lolium perenne (LOLPE) [8] it was 90.
As to `CCc1ccc(Oc2ccc(Cl)c(Cl)c2)cc1C1=C(O)C(C)(C)OC(C)(C)C1=O` [Example A-182], the pest or weed control at 250 g/ha was found to be 30% in experiment [1]; 30% in the experiment with Avena fatua (AVEFA) [2]; 90% in experiment [3]; 80% in the experiment on Lolium perenne (LOLPE) [4]; 90% in experiment [5]; 60% in the experiment on Avena fatua (AVEFA) [6]. For the same molecule, the pest or weed control at 250 g/ha in experiment [7] worked out at 100%; in the experiment with Lolium perenne (LOLPE) [8], 60%.
On to `CCc1ccc(Oc2cnc3ccc(Br)cc3n2)cc1C1=C(O)C(C)(C)OC(C)(C)C1=O` [Example A-104], for which the pest or weed control at 250 g/ha in experiment [1] amounted to 90%; with Avena fatua (AVEFA) [2] it was 30%; in experiment [3], 100%; in the experiment on Lolium perenne (LOLPE) [4], 100%; in experiment [5] it was 90%; in the experiment with Avena fatua (AVEFA) [6], 80%. Further, the pest or weed control at 250 g/ha came out at 100% in experiment [7] and 90% in the experiment on Lolium perenne (LOLPE) [8].
In the case of `CCc1ccc(Oc2nc3c(Cl)cccc3s2)cc1C1=C(O)C(C)(C)OC(C)(C)C1=O` [Example A-193], the pest or weed control at 250 g/ha was 30% in experiment [1]; 20% in the experiment with Avena fatua (AVEFA) [2]; 90% in experiment [3]; 70% in the experiment on Lolium perenne (LOLPE) [4]; 80% in experiment [5]; 10% in the experiment on Avena fatua (AVEFA) [6]. Further, the pest or weed control at 250 g/ha (in experiment [7]; in the experiment on Lolium perenne (LOLPE) [8]) was 100% in each case.
